Data on four compounds can be found in patent US6458828B1, “Deodorants, foods and beverages, and oral compositions as well as toiletry products” (Lotte Co., Ltd., priority 1999, dated 2002).

The nature of test [1]: Test 1 deodorizing effect test (head-space gas chromatography, pH 7.5). To be noted: reduction ratio of methylmercaptan vs sample-free system; sample 7.5 mg/ml, pH 7.5, 25 ppm sodium methylmercaptan, 30 minutes at 37° C. The procedure:
After 1.0 ml of the sample solution and 0.5 ml of 25 ppm sodium methylmercaptan was added in a vial to shake the same for 30 minutes at 37° C., and then 200 μl of a vapor phase component in the vial was gathered. An amount of formed methylmercaptan was measured by the gas chromatography to compare the same with a sample-free system, thereby to find a reduction ratio of methylmercaptan as a deodorizing coefficient. […] The gas chromatography uses “GC-9A” commercially available from Shimazu Manufacturing Co., Ltd. The measuring conditions were described below. [table]

Test [2] can be described thus: Deodorizing activity by head-space method using gas chromatography (general statements). The text has this: The resent inventors have researched on various materials to discover the effective deodorant in the head-space method using a gas chromatography.
The nature of test [3]: Gas chromatography analysis of sulfides with caramels and maltols. To be noted: garlic and onion odor ingredients. The protocol:
Also, in Japanese laid-open publication 62-169720, it is also disclosed that caramels and maltols (3-hydroxy-2-methyl-γ-pyrone) obtained from heating sucrose or glucose show deodorizing effect against garlic and onion odors. If, however, the odor composition was analyzed by a gas chromatography, then no change in odor composition was observed.

A short description of test [4]: Test 3 deodorizing effect test against ammonia (Kitagawa detecting tube). To be noted: 50 mg sample in 1.96 ml water, 40 μl ammonia solution (0.28%), 5 minutes at 37° C. The procedure: Each of 50 mg of the palatinose-derived thermal decomposition of Example 1 and sodium copper chlorophyllin was dissolved into 1.96 ml of water in 100 ml of the vial respectively. Then, 40 μl of an ammonia solution (0.28%) was added and shaken for 5 minutes at 37° C. and 100 ml of the vapor phase component in the vial was measured under a vacuum pressure by use of a Kitagawa detecting tube (ammonia No.3). The deodorizing rate of each sample was calculated from the concentration of ammonia in case of addition of no sample.

As for `OC[C@H]1O[C@H](OC[C@H]2OC(O)(CO)[C@@H](O)[C@@H]2O)[C@H](O)[C@@H](O)[C@@H]1O` (some centres unmarked) [Palatinose, palatinose], in test [1], the “Deodorant coefficient (%)” value was found to be 0.0%. Besides, in test [2], the “deodorizing activity / effect against methyl mercaptan (in words)” value is “does not provide such the effect”.
In the case of `OC[C@H]1O[C@@](CO)(O[C@H]2O[C@H](CO)[C@@H](O)[C@H](O)[C@H]2O)[C@@H](O)[C@@H]1O` [Sucrose, sucrose], the “Deodorant coefficient (%)” value in test [1] is 0.0%.
On to `Cc1occc(=O)c1O` [maltols, 3-hydroxy-2-methyl-γ-pyrone], for which, in test [3], the “change in composition of sulfides (methyl marcaptan, allyl marcaptan) by gas chromatography” value is “no change in the composition was observed”.
As for sodium copper chlorophyllin, in test [4], the “Rate of deodorizing (%)” value was 9.2%.
